Measurements published in patent US8822698B2, “Aminoacid derivatives, their process of preparation and their therapeutical uses as inhibitors of oncogenic signals by the Met family” (Universite D'Aix-Marseille, priority 2009, dated 2014).
“Also recorded” adds a separate entry of the source.

What was measured:
[1] = test system: Met-triggered cell scattering, MDCK cells; assay: HGF-induced MDCK cell scattering assay; format: cell-based; conditions: Canis lupus familiaris; MDCK cells, 20 ng/ml HGF; read-out: IC50 scattering inhibition
Experimental: (§1) MDCK cells were grown in Dulbecco's modified Eagle's medium (DMEM) (Gibco BRL) containing 4 mM L-glutamine and supplemented with 2% (v/v) foetal bovine serum (Gibco BRL), 100 U/mL penicillin, and 100 μg/mL streptomycin. Cells were plated at a density of 1000 cells per well in 24-well microplates and allowed to settle overnight at 37° C. in a humidified atmosphere of 5% CO2 prior to treatments. MCF10A human breast cells, MDA-MB231 human breast cancer cells, GTL-16 human gastric carcinoma cells, HepG2 human hepatocellular carcinoma cells, U-87 human glioblastoma-astrocytoma cells and LLC Lewis lung carcinoma cells were grown in RPMI medium (Gibco BRL) containing 4 mM L-glutamine and supplemented with 2% (v/v) foetal bovine serum (Gibco BRL), 100 U/mL penicillin, and 100 μg/mL streptomycin and kept at 37° C. in a humidified atmosphere of 5% CO2.
(§2) For scattering assays, MDCK cells were pre-incubated with compounds for 2 hours at 0.1-100 μM concentrations at 37° C. in a humidified atmosphere of 5% CO2, followed by 24 hr stimulation with 20 ng/ml HGF (R&D Systems), as previously described (Patane et al., Biochem Biophys Res Commun 375, 184-189, 2008). The cells were further incubated at 37° C. in an atmosphere of 5% CO2 for 24-48 hours, washed with phosphate-buffered saline (PBS; Gibco BRL), and fixed in PFA (Sigma). The quantification of scattering response was performed by counting the number of cells with scattered morphology in 30 independent colonies. The […] corresponds to the concentration of compounds leading to a 50% inhibition of Met-triggered cell scattering. Active compounds were assayed to impair scattering response also on human breast MCF10A cells following the same procedure. For survival assays, GTL-16, HepG2 and U-87 cells were cultured in serum-free media for 24 hours prior to compound addition for 48 hours. Viability was assessed with the Cell Titer Glo Luminescent Assay (Promega). For in vitro tumorigenesis, soft agar growth assays were preformed using GTL-16, HepG2, and U-87 cells, as previously described (Patane et al., Cancer Res 66, 4750-4757, 2006).
Compounds were first submitted to a biological screening of cell motility, namely scattering response. MDCK epithelial cells acquire a “scattered phenotype” following stimulation by the Met ligand, HGF (Chan et al., J Biomol Screen. 13, 847-854, 2008; Corso et al., Trends Mol Med 11, 284-292, 2005; Patane et al., Biochem Biophys Res Commun 375, 184-189, 2008), allowing direct evaluation of compounds on Met functions. The Met inhibitor […] was used as control in all assays (Schiering et al., Proc Natl Acad Sci USA 100, 12654-12659, 2003).

MDCK cells = assay: Toxicity observed in the cell scattering screening; format: cell-based
Experimental: as §2
Compounds of examples 1 (XIII), 2 (XIV), 4 (XVI), 5 (XVII), and 6 (XVIII) in particular elicit inhibitory activity on Met-triggered cell scattering. […] The SU11274 (Met inhibitor; Sugen) was used as reference compound. […] These findings were further supported by analysing the inhibitory activity of compounds on breast cells. […] Altogether, these studies identify a new class of compounds of general formula (I), which are able to interfere with Met-triggered cell scattering.

HepG2 cells = assay: Soft agar anchorage-independent growth (in vitro tumorigenesis), HepG2; format: cell-based; conditions: Homo sapiens, read-out: HepG2 IC 50
Experimental: as §1
For scattering assays, MDCK cells were pre-incubated with compounds for 2 hours at 0.1-100 μM concentrations at 37° C. in a humidified atmosphere of 5% CO2, followed by 24 hr stimulation with 20 ng/ml HGF (R&D Systems), as previously described (Patane et al., Biochem Biophys Res Commun 375, 184-189, 2008). […] The quantification of scattering response was performed by counting the number of cells with scattered morphology in 30 independent colonies. […] Viability was assessed with the Cell Titer Glo Luminescent Assay (Promega). […]

GTL-16 cells = assay: Soft agar anchorage-independent growth (in vitro tumorigenesis), GTL-16; format: cell-based, human
Experimental: as §1
as §2, with “2006). […]” for “2006).”

[2] = test system: Met phosphorylation, HepG2 cells; assay: Met phosphorylation upon HGF stimulation in HepG2 cells; format: cell-based, human
Experimental: After starvation, cells were pretreated with inhibitors, then stimulated with HGF, and total extracts were analyzed as described (Maina et al., Mol Cell 7, 1293-1306, 2001). Antibodies used were anti-tubulin (Sigma), anti-phospho Y1234-1235-Met, anti-Akt, anti-phospho-Akt, anti-phospho-Gab1, anti phosphor-ErbBs, anti-phospho-PDGFR, anti-PDGFRs, anti-ERKs (Cell Signaling), anti-ErbBs, anti-Met (Santa Cruz).
Activation of Met by HGF can be biochemically evaluated by following its phosphorylation levels and activation of downstream targets. We started to biochemically characterise the inhibitory properties of identified compounds by following Met phosphorylation and its downstream targets in HepG2 cells. […] These findings were further supported using other cell lines, such as MDA-MB231 human breast cancer cells (FIG. 2).

[3] = Toxicity evaluation in vivo (body and organ weight); parameters: species or system mice
Experimental: The weight of nude mice treated with the compound of example 4 (30 mg kg-1) or vehicle was measured before, during and after treatment. To evaluate the weight of heart, spleen, kidney, and liver, mice were sacrified after 21 days of treatment, organs were dissected, rinsed in PBS, and weight was measured.
We evaluated whether compounds of general formula elicited toxic effects in vivo by following mouse weight before, during and after treatment. […] We also evaluated the weight of heart, spleen, kidney and liver of mice treated with the compound of example 4 or vehicle.

In the case of `O=C(Cc1cc(C(F)(F)F)cc(C(F)(F)F)c1)N[C@@H](Cc1ccccc1)C(=O)Nc1ccc(-c2cn3c(n2)sc2ccccc23)cc1` [Example 4, (S)-2-(3,5-bis(trifluoromethyl)phenylacetamido)-3-phenyl-N-[4-(imidazo[2,1-b]benzothiazol-2-yl)phenyl]propanamide], the IC50 [1] is reported as 0.171 µM, the “Concentration at which toxicity was or was not observed” value (MDCK cells) is reported as 100 µM and the Toxicity (MDCK cells; Table 1, scattering screening) is reported as >50 µM. For the same compound, the IC50 (HepG2 cells) was 0.321 µM, the Met-triggered anchorage-independent growth (GTL-16 cells; GTL-16 cells, dose dependent, listed as XVI) was “severely reduced; also recorded: severely affected” and the IC50 (GTL-16 cells; Homo sapiens, soft agar growth, GTL-16) was 0.811 µM. The Met phosphorylation [2] was “significantly reduced”, the “weight of heart, spleen, kidney and liver” value ([3]; after 21 days of treatment, versus vehicle) was “No differences” and the weight of mice ([3]; daily treated, 30 mg kg-1, compared to vehicle) was “No significant changes”.
